Columns and labels:
Assay in all cases: greenhouse post-emergence herbicidal test
Format in all cases: in vivo
Details in all cases: application rates of 0.25 or 0.125 kg/ha
[1] = tested on: Pharbitis purpurea
Text: (§1) The seeds of the test plants were sown separately for each species. For the post-emergence treatment, the test plants were first grown to a height of from 3 to 15 cm, depending on the plant habit, and only then treated with the active compounds which had been suspended or emulsified in water. The test plants were for this purpose either sown directly and grown in the same containers, or they were first grown separately as seedlings and transplanted into the test containers a few days prior to treatment. The application rate for the post-emergence treatment was 0.25 or 0.125 kg of a.s. (active substance)/ha. Depending on the species, the plants were kept at 10-25° C. or 20-35° C. The test period extended over 2 to 4 weeks. During this time, the plants were tended, and their response to the individual treatments was evaluated. Evaluation was carried out using a scale from 0 to 100. 100 means no emergence of the plants, or complete destruction of at least the above-ground parts, and 0 means no damage, or normal course of growth. The plants used in the greenhouse experiments were of the following species: [table]

[2] = tested on: Chenopodium album
Text: as §1

[3] = tested on: Amaranthus retroflexus
Text: as §1

[4] = tested on: Galium aparine
Text: as §1

Measured: post-emergence action

Cc1c(F)c(Oc2csc(C(F)(F)F)c2)nc(-n2ccc(C(F)(F)F)n2)c1F [compound 3.1, 3,5-Difluoro-4-methyl-2-(3-trifluoromethyl-1H-pyrazol-1-yl)-6-(5-trifluoromethyl-3-thienyloxy)pyridine]
very good: all assays above

From patent US20040198609A1, “4-alkyl-substituted thienyloxy-pyridines” (priority 2001, published 2004)
